Laboratory results: paper PMC8631740 (Nano Letters, 2021)

Target: PDZ-mNG (Homo sapiens, UniProt Q96RT1)
Test: Binding kinetics of PDZ-mNG to peptDTWV in fixed COS7 cells
Format: cell-based
Details: PFA or PFA/GA fixation, compared with kinetics at nanoparticles; result in words

effect of fixation on peptDTWV/PDZ-mNG interaction: not affected by fixation
Substance: RGSIDTWV-cooh [peptDTWV]
